Here are results for 12 molecules from patent US20240398812A1 (Caraway Therapeutics, Inc., priority 2021, published 2024).

The structures appear in SMILES notation.

One experiment deals with T1, TRPML2 (Homo sapiens, UniProt Q8IZK6).
T1 construct: expressed in transfected cells
T1 sequence (Q8IZK6 1-566): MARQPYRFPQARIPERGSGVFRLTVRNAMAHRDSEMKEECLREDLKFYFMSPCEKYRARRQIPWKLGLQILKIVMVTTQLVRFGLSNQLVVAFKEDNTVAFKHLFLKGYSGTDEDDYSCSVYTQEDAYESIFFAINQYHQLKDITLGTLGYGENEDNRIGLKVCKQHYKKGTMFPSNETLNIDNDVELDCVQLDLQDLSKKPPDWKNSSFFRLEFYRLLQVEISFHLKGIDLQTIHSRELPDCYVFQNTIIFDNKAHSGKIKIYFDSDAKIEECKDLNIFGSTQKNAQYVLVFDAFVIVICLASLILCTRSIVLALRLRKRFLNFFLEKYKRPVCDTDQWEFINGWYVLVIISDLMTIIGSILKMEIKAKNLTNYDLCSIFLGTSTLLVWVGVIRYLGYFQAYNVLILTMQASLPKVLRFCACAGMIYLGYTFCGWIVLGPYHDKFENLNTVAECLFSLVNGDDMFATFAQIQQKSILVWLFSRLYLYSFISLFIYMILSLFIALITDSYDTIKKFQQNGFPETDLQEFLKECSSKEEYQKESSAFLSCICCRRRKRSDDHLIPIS
Put plainly: Fluorescent TRPML2 assay (as for TRPML1). It is filed as cell-based. The settings on record: Table 3, compounds 201-283. The gist of the method:
(§1)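 HEK-293 Trex cells with tet-inducible (0.5 ug/mL doxycycline, overnight) surface-targeted mutant channel, Fluo4-AM loaded, suspended in Ringer's with 10 mM calcium. Compounds tested 20 µM to 6 nM final, half-log steps, triplicate; fluorescence at ex 480/em 540 nm. EC50 by non-linear regression of percent activity versus plate controls.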

For the next experiment, the target named is human TRPML1 (Homo sapiens, UniProt Q9GZU1). Put plainly: Fluorescent TRPML1 assay (Fluo4-AM calcium fluorescence, HEK-293 Trex cells). It is filed as cell-based. Conditions: Table 3, compounds 201-283. The gist of the method:
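Tet-inducible HEK-293 Trex cells stably expressing surface-targeted mutant human TRPML1, induced with 0.5 ug/mL doxycycline overnight, loaded with Fluo4-AM and suspended in Ringer's with 10 mM calcium. Compounds tested from 20 μM to 6 nM final, half-log steps, in triplicate; fluorescence (ex 480/em 540) normalised to plate controls, EC50 by non-linear regression.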

Another experiment addresses T2, TRPML3 (Homo sapiens, UniProt Q8TDD5).
T2 construct: expressed in transfected cells
T2 sequence (Q8TDD5 1-553): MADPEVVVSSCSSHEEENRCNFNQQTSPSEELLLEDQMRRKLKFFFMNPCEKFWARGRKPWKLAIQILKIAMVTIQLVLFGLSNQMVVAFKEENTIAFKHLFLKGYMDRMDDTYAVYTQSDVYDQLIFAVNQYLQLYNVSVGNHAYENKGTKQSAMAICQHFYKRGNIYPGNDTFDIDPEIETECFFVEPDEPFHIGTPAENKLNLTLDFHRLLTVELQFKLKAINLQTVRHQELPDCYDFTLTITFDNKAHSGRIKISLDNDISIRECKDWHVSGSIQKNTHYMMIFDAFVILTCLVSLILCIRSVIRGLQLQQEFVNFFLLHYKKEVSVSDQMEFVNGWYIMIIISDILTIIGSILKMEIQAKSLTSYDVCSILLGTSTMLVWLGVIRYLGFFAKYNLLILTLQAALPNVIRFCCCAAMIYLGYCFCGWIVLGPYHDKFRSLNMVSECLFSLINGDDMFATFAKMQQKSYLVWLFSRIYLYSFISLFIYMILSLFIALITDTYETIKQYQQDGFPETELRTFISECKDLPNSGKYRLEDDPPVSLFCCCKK
Put plainly: Fluorescent TRPML3 assay (as for TRPML1). Conditions: Table 3, compounds 201-283. It counts as cell-based. The gist of the method: as §1

Another experiment has as its system TRPMLs. Conditions: high concentrations needed; HEK293 cells expressing plasma-membrane TRPML1; cited from earlier work.

human TRPML1, sequence (Q9GZU1 whole entry L15A/L16A/L577A/L578A, form open): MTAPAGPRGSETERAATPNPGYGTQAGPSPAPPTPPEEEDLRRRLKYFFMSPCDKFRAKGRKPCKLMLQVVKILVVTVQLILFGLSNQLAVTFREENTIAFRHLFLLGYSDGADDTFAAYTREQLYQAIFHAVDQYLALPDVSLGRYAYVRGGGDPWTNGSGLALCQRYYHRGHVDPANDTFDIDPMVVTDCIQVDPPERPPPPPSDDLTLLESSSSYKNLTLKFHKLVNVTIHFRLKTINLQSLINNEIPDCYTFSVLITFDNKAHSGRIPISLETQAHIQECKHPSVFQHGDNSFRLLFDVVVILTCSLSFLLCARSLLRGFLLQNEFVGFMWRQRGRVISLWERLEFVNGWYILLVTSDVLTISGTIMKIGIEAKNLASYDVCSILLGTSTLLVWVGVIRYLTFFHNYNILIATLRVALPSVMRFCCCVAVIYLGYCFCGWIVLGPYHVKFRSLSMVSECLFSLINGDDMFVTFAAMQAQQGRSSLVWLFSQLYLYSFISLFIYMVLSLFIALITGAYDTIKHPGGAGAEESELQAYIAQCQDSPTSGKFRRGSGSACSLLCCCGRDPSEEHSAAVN

By EC50 is commonly meant the midpoint of the concentration-response curve. Turning to `COC(C)(C)C(=O)N1CCN(c2ncnc3c2c(N2CCC2)cn3-c2cc(C#N)ccn2)C[C@H]1C` [Compound 269, (R)-2-(5-(azetidin-1-yl)-4-(4-(2-methoxy-2-methylpropanoyl)-3-methylpiperazin-1-yl)-7H-pyrrolo[2,3-d]pyrimidin-7-yl)isonicotinonitrile], the EC50 on TRPML2, at human TRPML1 and at TRPML3 was below 100 nM in each case.
Take `C[C@@H]1CN(c2ncnc3c2c(N2CCC2)cn3-c2cc(C#N)ccn2)CCN1C(=O)C1(F)CC1` [Compound 270, (R)-2-(5-(azetidin-1-yl)-4-(4-(1-fluorocyclopropane-1-carbonyl)-3-methylpiperazin-1-yl)-7H-pyrrolo[2,3-d]pyrimidin-7-yl)isonicotinonitrile]: the EC50 at TRPML2 was 100 to 500 nM; on human TRPML1, below 100 nM; on TRPML3, below 100 nM.
On to `C[C@@H]1CN(c2ncnc3c2c(N2CCC2)cn3-c2cc(C#N)ccn2)CCN1C(=O)C(C)(C)C` [Compound 271, (R)-2-(5-(azetidin-1-yl)-4-(3-methyl-4-pivaloylpiperazin-1-yl)-7H-pyrrolo[2,3-d]pyrimidin-7-yl)isonicotinonitrile], for which the EC50 at TRPML2, on human TRPML1 and on TRPML3 was below 100 nM each time.
Regarding `CC(C)CC(=O)N1CCN(c2ncnc3c2c(N2CCC2)cn3-c2cc(C#N)ccn2)C[C@H]1C` [Compound 272, (R)-2-(5-(azetidin-1-yl)-4-(3-methyl-4-(3-methylbutanoyl)piperazin-1-yl)-7H-pyrrolo[2,3-d]pyrimidin-7-yl)isonicotinonitrile], the EC50 was 100 to 500 nM on TRPML2, below 100 nM at human TRPML1 and below 100 nM on TRPML3.
Regarding `C[C@@H]1CN(c2ncnc3c2c(N2CCC2)cn3-c2cc(C#N)ccn2)[C@@H](C)CN1C(=O)C(C)(C)C` [Compound 276, 2-(5-(azetidin-1-yl)-4-((2S,5R)-2,5-dimethyl-4-pivaloylpiperazin-1-yl)-7H-pyrrolo[2,3-d]pyrimidin-7-yl)isonicotinonitrile], the EC50 at TRPML2 is 100 to 500 nM; at human TRPML1 it was below 100 nM; on TRPML3, below 100 nM.
In the case of `COC(C)(C)C(=O)N1C[C@H](C)N(c2ncnc3c2c(N2CCC2)cn3-c2cccc(F)c2)C[C@H]1C` [Compound 277, 1-((2R,5S)-4-(5-(azetidin-1-yl)-7-(3-fluorophenyl)-7H-pyrrolo[2,3-d]pyrimidin-4-yl)-2,5-dimethylpiperazin-1-yl)-2-methoxy-2-methylpropan-1-one], the EC50 at TRPML2 was 500 to 2000 nM; on human TRPML1 it was below 100 nM; on TRPML3, 100 to 500 nM.
Turning to `C[C@H]1CN(C(=O)C2(F)CC2)CCN1c1ncnc2c1c(N1CCCC1)cn2-c1cccc(Cl)c1` [Compound 278, (S)-(4-(7-(3-chlorophenyl)-5-(pyrrolidin-1-yl)-7H-pyrrolo[2,3-d]pyrimidin-4-yl)-3-methylpiperazin-1-yl)(1-fluorocyclopropyl)methanone], the EC50 is 100 to 500 nM on TRPML2, below 100 nM on human TRPML1 and 100 to 500 nM on TRPML3.
For the molecule `C[C@@H]1CN(c2ncnc3c2c(N2CCCC2)cn3-c2cccc(Cl)c2)CCN1C(=O)C1(F)CC1` [Compound 279, (R)-(4-(7-(3-chlorophenyl)-5-(pyrrolidin-1-yl)-7H-pyrrolo[2,3-d]pyrimidin-4-yl)-2-methylpiperazin-1-yl)(1-fluorocyclopropyl)methanone], the values for the EC50 on TRPML2, at human TRPML1 and at TRPML3 were 500 to 2000 nM, 100 to 500 nM and 500 to 2000 nM, respectively.
For the molecule `C[C@@H]1CN(c2ncnc3c2c(N2CCCC2)cn3-c2cccc(Cl)c2)[C@@H](C)CN1C(=O)C1(F)CC1` [Compound 280, ((2R,5S)-4-(7-(3-chlorophenyl)-5-(pyrrolidin-1-yl)-7H-pyrrolo[2,3-d]pyrimidin-4-yl)-2,5-dimethylpiperazin-1-yl)(1-fluorocyclopropyl)methanone], the values for the EC50 at TRPML2, at human TRPML1 and at TRPML3 were 500 to 2000 nM, 100 to 500 nM and 500 to 2000 nM, respectively.
On to `COC(C)(C)C(=O)N1C[C@H](C)N(c2ncnc3c2c(-c2ccccc2)cn3-c2cc(C#N)ccn2)C[C@H]1C` [Compound 282, 2-(4-((2S,5R)-4-(2-methoxy-2-methylpropanoyl)-2,5-dimethylpiperazin-1-yl)-5-phenyl-7H-pyrrolo[2,3-d]pyrimidin-7-yl)isonicotinonitrile], for which the EC50 at TRPML2, on human TRPML1 and at TRPML3 was below 100 nM in each case.
For the molecule `COC1(C(=O)N2C[C@H](C)N(c3ncnc4c3c(-c3ccccc3)cn4-c3cc(C#N)ccn3)C[C@H]2C)CC1` [Compound 283, 2-(4-((2S,5R)-4-(1-methoxycyclopropane-1-carbonyl)-2,5-dimethylpiperazin-1-yl)-5-phenyl-7H-pyrrolo[2,3-d]pyrimidin-7-yl)isonicotinonitrile], the values for the EC50 at TRPML2, at human TRPML1 and on TRPML3 were 100 to 500 nM, below 100 nM and below 100 nM, respectively.
Consider `CC1CC(C)(C)N(C(=O)CN2C(=O)c3ccccc3C2=O)c2ccccc21` (stereo not shown) [ML-SA1], for which the “concentration needed to effectively activate TRPMLs” value in the experiment with TRPMLs is around 10 µM.
